# Laboratory results: patent EP0808325B1, “[…] […] SERIES FOR […] GABA RECEPTOR” (priority 1994, dated 1996)
# Assays:
# [1] = test system: mice; experiment: elevated plus-maze; assay type: in vivo, N.I.H. Swiss-Webster mice
# From the text: The theoretical basis for the elevated plus-maze test is similar to that of the light/dark transition test. As described by Pellow et al., J. Neurosci. Meth 14:149-167 (1985), the elevated plus-maze apparatus is designed to utilize the mice's natural aversion to open spaces. The apparatus consists of two open-arms and two enclosed-arms. The elevated plus-maze test allows for two measures of anxiety, the number of entries into the open-arms and the time spent on the open-arms, both expressed as a percentage of the total number of entries and time spent in/on both the open-arms and enclosed-arms.
# Male N.I.H. Swiss-Webster mice (Harlan, Indianapolis, IN) weighing 15-20 g were housed four per cage in polyethylene cages with sawdust bedding. The colony room was environmentally controlled (22°C) with a 12 hr light/dark cycle (0600-1800 hr). Food and water were available ad libitum, except during testing. The experiments were run from 0700-1500 hr and groups were counterbalanced for time of day effects. Mice were only administered drug or vehicle once.
# The method used was previously described (Lister, Psychopharmacol. 92:180-185 (1987)). The apparatus included two open arms perpendicular to two enclosed arms elevated 50 cm from the floor. Each arm was 50 cm long and the walls of the enclosed arms were 40 cm tall. The maze was made completely of black plexiglass. Incandescent 200 W light bulbs were above each of the open arms to produce a strong contrast between the open arms and the enclosed arms.
# Ten minutes after an injection, the N.I.H. Swiss-Webster mice were placed in the center of the plus-maze facing an open arm. During the 5 min test period, the number of entries onto the open arms and the enclosed arms, and the time spent in the open arms and enclosed arms were measured. All four paws had to be within an arm for the dependent variable to be measured. Therefore, the time spent in the center of the maze is not counted, so the total time spent in the open arms and the enclosed arms may not equal 5 min. […]
# [2] = target: GR complex; experiment: modulation of [35S]TBPS binding in rat cerebral cortex P2 homogenate; design: species or system Sprague-Dawley rats; IMAX: unit not given here; details: for IC50: concentration of compounds to inhibit 50% of control [35S]TBPS binding, 2 nM [35S]TBPS, 25°C, 90 minutes; for IMAX: maximum inhibition of [35S]TBPS binding, I* = Inactive
# Procedure: We performed several experiments to determine the nature of the modulation of [^35S]TBPS as affected by the compounds of the invention.
# These procedures were performed as follows:
# Brains from male Sprague-Dawley rats were removed immediately following sacrifice and the cerebral cortices dissected over ice. […] Briefly, the cortices were gently homogenized in 0.32 M sucrose followed by centrifugation at 1000 x g for 10 minutes. The supernatant was collected and centrifuged at 9000 x g for 20 minutes. The resultant P2 pellet was suspended as a 10% (original wet weight/volume) suspension in 50 mM Na/K phosphate buffer (pH 7.4) 200 mM NaCI to form the homogenate.
# One hundred microliter […] aliquots of the P2 homogenate (0.5 milligrams (mg) protein) were incubated with 2 nanomolar (nM) [^35S]TBPS (70-110 curies/millimole;, New England Nuclear, Boston, MA) in the presence or absence of the naturally occurring steroids or their synthetic derivatives to be tested. The tested compounds were dissolved in dimethylsulfoxide (Baker Chem. Co., Phillipsbury, NJ) and added to the incubation mixture in 5 µL aliquots. The incubation mixture was brought to a final volume of 1 mL with buffer. Nonspecific binding was defined as binding in the presence of […]. The effect and specificity of GABA (Sigma Chem. Co., St. Louis, MO) was evaluated by performing all assays in the presence of GABA plus (+)bicuculline (Sigma Chem. Co.). Incubations maintained at 25°C for 90 minutes (steady state conditions) were terminated by rapid filtration through glass fiber filters (No. 32, Schleicher and Schuell, Keene, NH). Filter-bound radioactivity was quantitated by liquid scintillation spectrophotometry.
# Various compounds were screened to determine their potential as modulators of [^35S]TBPS binding in vitro. These assays were performed in accordance with the above discussed procedures. […] It is an indication of a compound's in vitro potency. Maximum inhibition is an indication of a compound's in vitro efficacy.
# [3] = test system: metrazol induced convulsions; experiment: animal or person; assay type: in vivo, mice; details: IP
# Procedure: Experiments were also performed to determine the physiological relevance of neuroactive steroid and GABA receptor interactions by assessing the ability of the compounds of and used in the invention to prevent metrazol induced convulsions in mice. […] The time to onset of myoclonus (presence of forelimb clonic activity) induced by metrazol was determined by observing each mouse for a period of 30 minutes. […]
# The anticonvulsant tests are similar to that described above. […] The number of animals with tonic and/or clonic convulsions was recorded. In the maximal electroshock test, 50 mA of current at 60 Hz was delivered through corneal electrodes for 200 msec to induce tonic seizure. The ability of compounds to abolish the tonic component was defined as the endpoint. General CNS depression potential was determined by a rotorod test 10 minutes after the injection of compounds where the number of mice staying on a rotating (6 rpm) rod for 1 minute in one of the three trials was determined. […]
# [4] = 50% hpbcd, 10 mg/kg, 10 minutes prior to metrazol (85 mg/kg)
Structure (SMILES),IC50 ([2]; no unit printed),IMAX [2],"% Control ([1]; IP, 50% hpbcd, 10 mg/kg)","% Protected [3, 4]",further results
"C#C[C@@]1(O)CC[C@@]2(C)[C@H](CC[C@@H]3[C@@H]2CC[C@]2(C)[C@@H](C(C)O)CC[C@@H]32)C1 (stereo partly drawn) [3α,20-Dihydroxy-3β-ethynyl-5β-pregnane]",,,,,"% Control ([1]; IP, dmso, 10 mg/kg): 178%"
"CCC(O)C1CCC2C3CCC4CC(C)(O)CCC4(C)C3CCC12C (stereo not drawn) [3α,20α-Dihydroxy-3β,21-dimethyl-5α-pregnane]",507 nM,48,,,"% Control ([1]; IP, dmso, 10 mg/kg): 73%; % Protected ([3]; dmso, 10 mg/kg): 0%"
"CC(O)C1CCC2C3CCC4CC(C)(O)CCC4(C)C3CCC12C (stereo not drawn) [3α,20α-dihydroxy-3β-methyl-5α-pregnane]",166 nM,52,,,"% Control ([1]; IV, micro soln., 10 mg/kg): 174.5%; % Protected ([3]; micro soln., 100 mg/kg): 60%"
"C#C[C@@]1(O)CC[C@@]2(C)[C@H](CC[C@@H]3[C@@H]2CC[C@]2(C)[C@@H](C(=O)COC(C)=O)CC[C@@H]32)C1 [3α,21-Dihydroxy-3β+ethynyl-5β-pregnan-20-one 21-acetate]",251 nM,101,159%,62.5%,
"C[C@]12CC[C@H]3[C@@H](CC[C@@H]4C[C@@](O)(C(F)(F)F)CC[C@@H]43)[C@@H]1CC[C@@H]2C(=O)CO [3α,21-Dihydroxy-3β-trifluoromethyl-5β-19-norpregnan-20-one]",246 nM,100,140%,118.8%,
"C[C@]12CC[C@](O)(CF)C[C@@H]1CC[C@@H]1[C@@H]2CC[C@]2(C)[C@@H](C(=O)CO)CC[C@@H]12 [3α,21-dihydroxy-3β-fluoromethyl-5α-pregnan-20-one]",592 nM,101,109%,25%,
"C[C@@]1(O)CC[C@@]2(C)[C@@H](CC[C@@H]3[C@@H]2CC[C@]2(C)[C@@H](C(=O)COC(=O)CCC(=O)[O-])CC[C@@H]32)C1.[Na+] [3α,21-dihydroxy-3β-methyl-5α-pregnan-20-one 21-Hemisuccinate, sodium salt]",,104,,,"IC50 ([2]; unit inferred, sodium salt): 211 nM; % Protected ([3]; micro soln., 10 mg/kg): 11.11%"
"C[C@@]1(O)CC[C@@]2(C)[C@@H](CC[C@@H]3[C@@H]2CC[C@]2(C)[C@@H](C(=O)COC(=O)CCC(=O)O)CC[C@@H]32)C1 [3α,21-dihydroxy-3β-methyl-5α-pregnan-20-one 21-hemisuccinate]",241 nM,92,,,"% Protected ([3]; water, 10 mg/kg): 37.5%"
"C[C@@]1(O)CC[C@@]2(C)[C@@H](CC[C@@H]3[C@@H]2CC[C@]2(C)[C@@H](C(=O)CO)CC[C@@H]32)C1 [3α,21-dihydroxy-3β-methyl-5α-pregnan-20-one]",258 nM,96,,87.5%,
"CC12CCC(O)(C(F)(F)F)CC1CCC1C2CCC2(C)C(C(=O)COC(=O)C=CC(=O)[O-])CCC12.[Na+] (stereo not drawn) [3α,21-dihydroxy-3β-trifluoromethyl-5β-pregnan-20-one 21 hemifumarate sodium salt]",546 nM,102,,,"% Control ([1]; IP, water, dose column prints 50% hpbcd): 126%; % Protected ([3]; water, 10 mg/kg): 50%"
"CC(=O)OCC(=O)[C@H]1CC[C@H]2[C@@H]3CC[C@H]4C[C@H](O)CC[C@]4(C)[C@H]3CC[C@]12C [3α,21-dihydroxy-5α-pregnan-20-one 21-acetate]",75 nM,99,133%,50%,
"C[C@]12CC[C@@H](O)C[C@@H]1CC[C@@H]1[C@@H]2CC[C@]2(C)[C@@H](C(=O)COC(=O)CCC(=O)[O-])CC[C@@H]12.[Na+] [3α,21-dihydroxy-5α-pregnan-20-one 21-hemisuccinate, sodium salt]",,92,,,"IC50 ([2]; unit inferred, sodium salt): 251 nM; % Protected ([3]; water, 60 mg/kg): 100%"
"CC(=O)OCC(=O)[C@H]1CC[C@H]2[C@@H]3CC[C@@H]4C[C@H](O)CC[C@]4(C)[C@H]3CC[C@]12C [3α,21-dihydroxy-5β-pregnan-20-one 21-acetate]",119 nM,49,,25%,
CC(=O)[C@H]1CC[C@H]2[C@@H]3CC[C@H]4C[C@](O)(C(F)(F)F)CC[C@]4(C)[C@H]3CC[C@]12C [3α-Hydroxy-3β-trifluoromethyl-5α-pregnan-20-one],244 nM,44,,62.5%,
"CC(=O)C1CCC2C3CCC4CC(O)(C(F)(F)F)CCC4(C)C3C(=O)CC12C (stereo not drawn) [3α-Hydroxy-3β-trifluoromethyl-5β-pregnan-11,20-dione]",,,112%,,
C=C(C)C#CC1(O)CCC2(C)C(CCC3C2CCC2(C)C(C(C)=O)CCC32)C1 (stereo not drawn) [3α-hydroxy-3β-(3'-methyl-but-3'-en-1'-ynyl)-5α-pregnan-20-one],88 nM,95,141%,87.5%,
CC(=O)[C@H]1CC[C@H]2[C@@H]3CC[C@H]4C[C@](C)(O)CC[C@@H]4[C@H]3CC[C@]12C [3α-hydroxy-3β-methyl-5α-19-nor-pregnan-20-one],91 nM,80,,,"% Protected ([3]; micro soln., 10 mg/kg): 37.5%"
CC(=O)[C@H]1CC[C@H]2[C@@H]3CC[C@@H]4C[C@@](O)(C#CC5CC5)CC[C@]4(C)[C@H]3CC[C@]12C [3β-Cyclopropylethynyl-3α-hydroxy-5β-pregnan-20-one],22 nM,94,,87.5%,"IC50 ([2]; no unit printed, listed as 3β-(cyclopropyl)ethynyl-3α-hydroxy-5β-pregnan-20-one): 32 nM; IMAX ([2]; listed as 3β-(cyclopropyl)ethynyl-3α-hydroxy-5β-pregnan-20-one): 97"
C#C[C@@]1(O)CC[C@@]2(C)[C@H](CC[C@H]3[C@@H]4CC[C@H](C(C)=O)[C@@]4(C)C=C[C@@H]32)C1 [3β-Ethynyl-3α-hydroxy-5β-pregn-11-en-20-one],,,233%,75%,
"C#C[C@@]1(O)CC[C@@]2(C)[C@H](CC[C@H]3[C@@H]4CC[C@H](C(C)=O)[C@@]4(C)CC(=O)[C@@H]32)C1 [3β-Ethynyl-3α-hydroxy-5β-pregnan-11,20-dione]",,,,,"% Control ([1]; IP, 50% hpbcd, 5 mg/kg): 235.9%"
"C#C[C@@]1(O)CC[C@@]2(C)[C@H](CC[C@@H]3[C@@H]2CC[C@]2(C)[C@@H](C(=O)COC(=O)CCC(=O)OCC(=O)[C@H]4CC[C@H]5[C@@H]6CC[C@@H]7C[C@@](O)(C#C)CC[C@]7(C)[C@H]6CC[C@]45C)CC[C@@H]32)C1 [Bis (3α,21-dihydroxy-3β-ethynyl-5β-pregnan-20-one) 21-hemisuccinate]",68 nM,56,,37.5%,
